# Reference: ChEMBL document CHEMBL1133206, “Antifungal rapamycin analogues with reduced immunosuppressive activity” (Bioorg Med Chem Lett, 2000)
# Key:
# Aspergillus niger [1] = assay: In vitro antifungal activity at a minimum inhibitory concentration (~100 ug/mL) against Aspergillus niger; Not affected; type: functional; conditions: Aspergillus niger; read-out: MIC
# Candida albicans [2] = assay: In vitro antifungal activity against Candida albicans (CA 10231); type: functional
# Pichia kudriavzevii = assay: In vitro antifungal activity against Candida krusei (CK 28838); type: functional
# Candida albicans [3] = assay: Compound was screened in vitro for antifungal activity against Candida albicans (CA 38247); type: functional
# Candida albicans [4] = assay: In vitro antifungal activity against Candida albicans (CA 38247); Weak; type: functional, organism-based
# Candida albicans [5] = assay: Compound was screened in vitro for antifungal activity against Candida albicans (CA 442); type: functional
# Candida albicans [6] = assay: In vitro antifungal activity against Candida albicans (CA 442); Weak; type: functional, organism-based
# Candida albicans [7] = assay: In vitro for antifungal activity against Candida albicans (CA 579a); type: functional
# Candida albicans [8] = assay: Compound was screened in vitro for antifungal activity against Candida albicans (CA 62376); type: functional
# Candida albicans [9] = assay: In vitro antifungal activity against Candida albicans (CA 62376); Weak; type: functional, organism-based
# Candida albicans [10] = assay: Compound was screened in vitro for antifungal activity at a minimum inhibitory concentration (~100 ug/mL) against […] ([…]); Not affected; type: functional
# Homo sapiens = organism: Homo sapiens; assay: Inhibitory activity against human concanavalin-A proliferation assay; type: functional
# Nakaseomyces glabratus = assay: In vitro antifungal activity against Torulopsis glabrata (TG 15545); type: functional
# Candida tropicalis [11] = assay: Compound was screened in vitro for antifungal activity against Candida tropicalis (CT 750)
# Aspergillus niger [12] = assay: Compound was screened in vitro for antifungal activity at a minimum inhibitory concentration (~100 ug/mL) against Aspergillus niger; not affected; type: functional
# Candida albicans [13] = assay: Compound was screened in vitro for antifungal activity against Candida albicans (CA 38247); weak; type: functional, organism-based
# Candida albicans [14] = assay: Compound was screened in vitro for antifungal activity against Candida albicans (CA 442); weak; type: functional, organism-based
# Candida albicans [15] = assay: Compound was screened in vitro for antifungal activity against Candida albicans (CA 62376); weak; type: functional, organism-based
# Candida albicans [16] = assay: Compound was screened in vitro for antifungal activity at a minimum inhibitory concentration (~100 ug/mL) against […] (CA 34140); not affected; type: functional
# Candida tropicalis [17] = assay: In vitro antifungal activity against Candida tropicalis (CT 750); type: functional
# Aspergillus niger [18] = assay: Compound was screened in vitro for antifungal activity at a minimum inhibitory concentration (~100 ug/mL) against Aspergillus nigerl; Not effected; type: functional
# Candida albicans [19] = assay: In vitro antifungal activity against […] (CA 34140); Not affected.; type: functional
# Candida albicans [20] = assay: Compound was screened in vitro for antifungal and immunosuppressive activity against Candida albicans (CA 38247); type: functional
MIC (Candida albicans [2]) [mg/L],MIC (Pichia kudriavzevii) [mg/L],MIC (Candida albicans [4]),MIC (Candida albicans [5]) [mg/L],MIC (Candida albicans [6]),MIC (Candida albicans [7]) [mg/L],MIC (Candida albicans [8]) [mg/L],MIC (Candida albicans [9]),MIC (Nakaseomyces glabratus) [mg/L],MIC (Candida tropicalis [17]) [mg/L],Compound,IC50 (Homo sapiens) [µM],other results
0.2,0.78,Weak,0.2,Weak,0.2,0.2,Weak,< 0.1,–,CO[C@H]1C[C@@H]2CC[C@@H](C)[C@@](O)(O2)C(=O)C(=O)N2CCCC[C@H]2C(=O)O[C@H]([C@H](C)C[C@@H]2CC[C@@H](O)[C@H](OC)C2)CC(=O)[C@H](C)/C=C(\C)[C@@H](O)[C@@H](OC)C(=O)[C@H](C)C[C@H](C)/C=C/C=C/C=C/1C [SIROLIMUS],0.001,MIC (Aspergillus niger [1]): ~100 mg/L; MIC (Candida albicans [3]): 0.2 mg/L; MIC (Candida albicans [10]): ~100 mg/L; MIC (Candida tropicalis [11]): 0.2 mg/L
1.56,0.78,–,–,–,1.56,–,–,0.78,1.56,COC(=O)N[C@@H]1C[C@@H]2CC[C@@H](C)[C@@](O)(O2)C(=O)C(=O)N2CCCC[C@H]2C(=O)O[C@H]([C@H](C)C[C@@H]2CC[C@@H](O)[C@H](OC)C2)CC(=O)[C@H](C)/C=C(\C)[C@@H](O)[C@@H](OC)C(=O)[C@H](C)C[C@H](C)/C=C/C=C/C=C/1C,1.38,MIC (Aspergillus niger [12]): ~100 mg/L; MIC (Candida albicans [13]): Weak; MIC (Candida albicans [14]): Weak; MIC (Candida albicans [15]): Weak; MIC (Candida albicans [16]): ~100 mg/L
25,6.25,Weak,–,Weak,50,–,Weak,6.25,25,CO[C@@H]1C[C@H](C[C@@H](C)[C@@H]2CC(=O)[C@H](C)/C=C(\C)[C@@H](O)[C@@H](OC)C(=O)[C@H](C)C[C@H](C)/C=C/C=C/C=C(\C)[C@H](N(O)C(=O)N3CCOCC3)C[C@@H]3CC[C@@H](C)[C@@](O)(O3)C(=O)C(=O)N3CCCC[C@H]3C(=O)O2)CC[C@H]1O,1.74,MIC (Aspergillus niger [18]): ~100 mg/L; MIC (Candida albicans [19]): ~100 mg/L
> 100,> 100,–,> 100,–,> 100,> 100,–,–,> 100,CO[C@H]1C[C@@H]2CC[C@@H](C)[C@@](O)(O2)C(=O)C(=O)N2CCCC[C@H]2C(=O)O[C@H]([C@H](C)C[C@@H]2CC[C@@H](OC(=O)c3ccc([N+](=O)[O-])cc3)[C@H](OC)C2)CC(=O)[C@H](C)/C=C(\C)[C@@H](O)[C@@H](OC)C(=O)[C@H](C)C[C@H](C)CCCC/C=C/1C,–,MIC (Candida albicans [20]): > 100 mg/L
